Among the test systems are TK-10; M14; RXF 393; MCF7; T47D; SF-539; NCI-H460; SNB-75; CCRF-CEM; SK-OV-3; 786-0; BT-549; IGROV-1; HT-29; NCI-H226; HL-60; MDA-MB-435; MDA-N; HOP-62; Hs-578T.
What all share (assay): DTP human tumour cell line panel, 48 h

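How tested: cells in 96-well plates exposed to compound for 48 hours at five concentrations. Here, GI50 denotes the concentration required for 50% inhibition of growth.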 Calls of active or inactive are those of the source. Rule as the data show it: active = GI50 up to about 1.1 µM and inactive = higher. *1 amine or outer side, *2 acyl side, *3 side chain or, on linkers, in order; H or OH if unused. Where a SMILES comes first, the peptide text is derived from it. [ ]: non-standard residue; d: D form. The star is where a group is joined. X31 = CC(=O)N(C)SCC(N[*:1])C(=O)[*:2]; Fmoc = O=C(OCC1c2ccccc2-c2ccccc21)*; For = O=C*

With `CC(=O)N(C)SCC(NC(=O)C(Cc1ccccc1)NC(=O)OCC1c2ccccc2-c2ccccc21)C(=O)NC(Cc1ccccc1)C(=O)NC(Cc1cn(C=O)c2ccccc12)C(=O)NC(CCCCNC(=O)OCC1c2ccccc2-c2ccccc21)C(=O)NC(C(=O)NC(CSN(C)C(C)=O)C(=O)NC(C(N)=O)C(C)O)C(C)O` (stereo not drawn) (Fmoc-F[X31]FW(For)K(Fmoc)T[X31]T-NH2; configuration not given here), the GI50 was 24.2 µM (inactive) in the assay on TK-10; 31 µM (inactive) in the assay with M14; 20.5 µM (inactive) in the assay on RXF 393; 47.4 µM (inactive) in the assay with MCF7; > 100 µM (inactive) in the assay on T47D; > 100 µM (inactive) with SF-539. Moreover, the GI50 in the assay on NCI-H460 is 33.5 µM (inactive); in the assay with SNB-75 it was 33.1 µM (inactive); in the assay on CCRF-CEM, > 100 µM (inactive); in the assay with SK-OV-3 it was 37.2 µM (inactive); in the assay with 786-0, > 100 µM (inactive); in the assay on BT-549, > 100 µM (inactive). Moreover, the GI50 with IGROV-1 is 66.4 µM (inactive); with HT-29, > 100 µM (inactive); in the assay on NCI-H226 it was > 100 µM (inactive); in the assay on HL-60 it was > 100 µM (inactive); in the assay with MDA-MB-435, 94.4 µM (inactive); in the assay with MDA-N, 36.7 µM (inactive). Further, the GI50 in the assay with HOP-62 and in the assay on Hs-578T was > 100 µM (inactive) in each case.
For `CC(=O)O[C@@H]1C[C@@]23C[C@@]24CC[C@H](OC2OCC(O)C(O)C2O)C(C)(C)[C@@H]4CC=C3[C@]2(C)C[C@@H]3OC4(C[C@@H](C)[C@@H]3[C@@]12C)OC(O)[C@@]1(C)O[C@@H]41` (stereo partly drawn), the GI50 is 36 µM (inactive) in the assay with TK-10; 47.2 µM (inactive) in the assay with M14; 15.9 µM (inactive) in the assay with RXF 393; 30.8 µM (inactive) with MCF7; 20.8 µM (inactive) in the assay on T47D; 20.8 µM (inactive) with SF-539. Besides, the GI50 was 25.3 µM (inactive) in the assay with NCI-H460; 25 µM (inactive) with SNB-75; 11.7 µM (inactive) in the assay with CCRF-CEM; 30.4 µM (inactive) in the assay with SK-OV-3; 25.2 µM (inactive) in the assay on 786-0; 27.9 µM (inactive) with BT-549. For the same compound, the GI50 in the assay on IGROV-1 is 36.5 µM (inactive); in the assay on HT-29, 33.2 µM (inactive); in the assay with NCI-H226, 35.4 µM (inactive); in the assay with HL-60, 7.73 µM (inactive); in the assay on MDA-MB-435 it was 32.4 µM (inactive); in the assay on MDA-N it was 30.9 µM (inactive). In addition, the GI50 with HOP-62 was 27.4 µM (inactive); in the assay with Hs-578T, 40.4 µM (inactive).
As to `CCOC(=O)Cn1nnc2ccc(Nc3nc4ccccc4nc3-c3ccccc3)cc21`, the GI50 is 25.4 µM (inactive) in the assay on TK-10; 95.5 µM (inactive) with M14; > 100 µM (inactive) in the assay with RXF 393; > 100 µM (inactive) in the assay with MCF7; > 100 µM (inactive) with T47D; 59.6 µM (inactive) with SF-539. The GI50 was 48.6 µM (inactive) in the assay with NCI-H460; 30.8 µM (inactive) with SNB-75; > 100 µM (inactive) in the assay on CCRF-CEM; 90.8 µM (inactive) in the assay on SK-OV-3; 32.3 µM (inactive) with 786-0; > 100 µM (inactive) with BT-549. The GI50 in the assay with IGROV-1, in the assay with HT-29, with NCI-H226, in the assay with HL-60, with MDA-MB-435 and in the assay with MDA-N was > 100 µM (inactive) each time. In addition, the results for the GI50 with HOP-62 and in the assay on Hs-578T were 48 µM (inactive) and 75.2 µM (inactive), respectively.
`CCOC(=O)N1CCN(c2nc(C)n(-c3ccccc3)c(=S)c2C#N)CC1`: the GI50 in the assay with TK-10 is > 81.1 µM (inactive); with M14, > 91 µM (inactive); with RXF 393, > 95.9 µM (inactive); with MCF7, > 48.9 µM (inactive); in the assay with T47D, > 100 µM (inactive); with SF-539, > 83.4 µM (inactive). In addition, the GI50 in the assay on NCI-H460 is 52.7 µM (inactive); in the assay on SNB-75, 37.2 µM (inactive); in the assay with CCRF-CEM, > 23.4 µM (inactive); with SK-OV-3, > 82.2 µM (inactive); with 786-0 it was 42.8 µM (inactive); with BT-549, > 51.9 µM (inactive). The GI50 in the assay on IGROV-1 was 32.4 µM (inactive); with HT-29 it was > 100 µM (inactive); in the assay on NCI-H226, > 61.8 µM (inactive); in the assay on HL-60 it was > 28.7 µM (inactive); with MDA-MB-435, > 74.6 µM (inactive); in the assay on MDA-N, > 50 µM (inactive). In addition, the GI50 in the assay with HOP-62 was > 75.5 µM (inactive); in the assay on Hs-578T, 34.3 µM (inactive).
`S=C(NC/C(Br)=C/Br)Nc1cccc2ccccc12`: the GI50 in the assay with TK-10 was 40.6 µM (inactive); in the assay with M14 it was 16.8 µM (inactive); with RXF 393, 31.3 µM (inactive); with MCF7, 20 µM (inactive); in the assay with T47D it was 40.4 µM (inactive); in the assay with SF-539, 25.5 µM (inactive). The GI50 in the assay on SNB-75 was 33.5 µM (inactive); in the assay with CCRF-CEM, 18.3 µM (inactive); with SK-OV-3 it was 37.5 µM (inactive); with 786-0 it was 38.8 µM (inactive); in the assay with BT-549, 33.3 µM (inactive); with IGROV-1, 29.3 µM (inactive). In addition, the GI50 in the assay with HT-29 is 34.5 µM (inactive); in the assay with NCI-H226 it was 26.7 µM (inactive); with HL-60, 12.9 µM (inactive); in the assay on MDA-MB-435 it was 34 µM (inactive); with MDA-N, 25.4 µM (inactive); with HOP-62 it was 30.3 µM (inactive). For the same compound, in the assay on Hs-578T, the GI50 was > 100 µM (inactive).
With `CCN(CC)CC(=O)O[C@]1(CC)C(=O)OCc2c1cc1n(c2=O)Cc2cc3ccccc3nc2-1`, the GI50 with TK-10 is 1.36 µM (inactive); in the assay with M14, < 0.0201 µM (active); with RXF 393, 0.0836 µM (active); in the assay on MCF7, < 0.01 µM (active); with T47D it was < 0.01 µM (active); in the assay on SF-539, < 0.0139 µM (active). Also, the GI50 in the assay on NCI-H460 was < 0.01 µM (active); with SNB-75 it was 0.0266 µM (active); in the assay with CCRF-CEM, < 0.01 µM (active); with SK-OV-3, 0.0826 µM (active); with 786-0, < 0.0107 µM (active); with BT-549, 0.0413 µM (active). Moreover, the GI50 in the assay with IGROV-1 was 0.11 µM (active); in the assay with HT-29, 0.0957 µM (active); with NCI-H226, 0.0209 µM (active); in the assay with HL-60, 0.0171 µM (active); in the assay with MDA-MB-435, 0.0703 µM (active); with MDA-N, 0.0951 µM (active). Moreover, the GI50 with HOP-62 is < 0.01 µM (active); in the assay with Hs-578T it was 3.21 µM (inactive).
`COC(=O)C1(Cc2ccc3c(c2)CCC3)Cc2ccc3c(c2C1O)CCC3` (stereo not drawn): the GI50 in the assay with TK-10 was 17.3 µM (inactive); in the assay on RXF 393, 14.5 µM (inactive); in the assay on MCF7, 12.9 µM (inactive); in the assay on T47D, 8.81 µM (inactive); in the assay with SF-539, 21.2 µM (inactive); in the assay with NCI-H460 it was 21 µM (inactive). Also, the GI50 was 32.2 µM (inactive) in the assay on SNB-75; > 100 µM (inactive) with CCRF-CEM; 18.5 µM (inactive) with SK-OV-3; 14.7 µM (inactive) with 786-0; 14.9 µM (inactive) in the assay on BT-549; > 10 µM (inactive) with IGROV-1. Further, the GI50 in the assay on HT-29 is 15.2 µM (inactive); in the assay on NCI-H226 it was 18.5 µM (inactive); in the assay with HL-60, 23.1 µM (inactive); in the assay with MDA-MB-435 it was 13 µM (inactive); with MDA-N it was 15.4 µM (inactive); in the assay on HOP-62, 14.7 µM (inactive). Moreover, in the assay with Hs-578T, the GI50 was 17.3 µM (inactive).

The values above are taken from ChEMBL document CHEMBL1201862, “PubChem BioAssay data set” (2004).
